Key:
Assay type in all cases: biochemical
human sEH-NTD = molecular target: T1, human sEH-NTD (Homo sapiens, UniProt P34913); assay: FDP-based phosphatase assay, isolated N-terminal domain; conditions: phosphatase activity of the isolated N-terminal domain, FDP substrate, pH 5.75; mean ± SD, n = 3
T1 construct: made in house
T1 sequence (P34913 1-224 limits assumed): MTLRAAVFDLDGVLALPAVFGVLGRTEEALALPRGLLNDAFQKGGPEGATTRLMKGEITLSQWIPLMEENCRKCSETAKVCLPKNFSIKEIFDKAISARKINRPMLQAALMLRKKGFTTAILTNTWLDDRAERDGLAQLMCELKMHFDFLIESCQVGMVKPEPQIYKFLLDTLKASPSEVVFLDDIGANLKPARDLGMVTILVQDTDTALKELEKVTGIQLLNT
Description: (§1) The FDP assay was performed as published previously by Klingler et al. using frozen sEH-PD as well as full-length human, mouse, and rat sEH. In brief, the assay was performed in a black 96-well microplate in which 1 μL of compound in DMSO (or DMSO only in the case of the positive control) was mixed with 89 μL of protein solution (final concentration of 0.1 μM for sEH-PD, full-length human sEH, and full-length rat sEH and 0.01 μM for full-length mouse sEH) in phosphatase assay buffer (50 mM acetate, 10 mM MgCl2, pH 5.75) supplemented with 0.01% w/v Triton X-100. For the blank, assay buffer without protein was used. The plates were incubated at rt for 30 min to allow binding of the inhibitor. To start the reaction, 10 μL of FDP solution (10 μM final concentration) in assay buffer was added, and the fluorescence changes (λex = 485 nm, λem = 525 nm) were detected at 30 time points over the duration of 30 min using an Infinite F200 PRO plate reader (Tecan, Crailsheim, Germany). All samples were measured in triplicate. The percent inhibition was calculated relative to the activities of the blank well (without protein) and positive control well (without inhibitor).

human sEH-FL (P) = molecular target: T2, human sEH-FL (P) (Homo sapiens, UniProt P34913); assay: FDP-based phosphatase assay, full-length sEH; conditions: phosphatase activity of the full-length sEH protein, FDP substrate; mean ± SD, n = 3
T2 construct: The full-length human sEH was previously published by Lukin et al; made in house
T2 sequence (P34913 1-555): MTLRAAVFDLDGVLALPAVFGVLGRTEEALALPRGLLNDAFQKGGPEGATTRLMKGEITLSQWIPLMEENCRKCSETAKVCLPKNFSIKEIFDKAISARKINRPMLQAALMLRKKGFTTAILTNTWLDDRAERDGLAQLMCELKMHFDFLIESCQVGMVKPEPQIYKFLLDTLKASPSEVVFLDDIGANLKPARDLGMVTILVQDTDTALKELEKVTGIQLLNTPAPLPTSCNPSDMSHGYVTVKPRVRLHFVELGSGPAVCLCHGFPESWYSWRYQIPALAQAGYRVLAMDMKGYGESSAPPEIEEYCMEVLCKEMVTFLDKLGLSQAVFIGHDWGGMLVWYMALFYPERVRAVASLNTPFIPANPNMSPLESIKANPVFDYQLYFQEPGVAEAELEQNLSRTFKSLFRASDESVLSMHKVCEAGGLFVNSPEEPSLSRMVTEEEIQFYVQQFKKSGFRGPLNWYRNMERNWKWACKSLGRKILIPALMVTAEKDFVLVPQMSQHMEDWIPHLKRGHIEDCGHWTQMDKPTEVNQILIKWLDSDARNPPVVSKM
Description: as §1

rat sEH-FL (P) = molecular target: T3, rat sEH-FL (P) (Rattus norvegicus, UniProt P80299); assay: FDP-based phosphatase assay, full-length sEH; conditions: phosphatase activity of the full-length sEH protein, FDP substrate; mean ± SD, n = 3
T3 construct: using frozen sEH-PD as well as full-length human, mouse, and rat sEH
T3 sequence (P80299 1-554): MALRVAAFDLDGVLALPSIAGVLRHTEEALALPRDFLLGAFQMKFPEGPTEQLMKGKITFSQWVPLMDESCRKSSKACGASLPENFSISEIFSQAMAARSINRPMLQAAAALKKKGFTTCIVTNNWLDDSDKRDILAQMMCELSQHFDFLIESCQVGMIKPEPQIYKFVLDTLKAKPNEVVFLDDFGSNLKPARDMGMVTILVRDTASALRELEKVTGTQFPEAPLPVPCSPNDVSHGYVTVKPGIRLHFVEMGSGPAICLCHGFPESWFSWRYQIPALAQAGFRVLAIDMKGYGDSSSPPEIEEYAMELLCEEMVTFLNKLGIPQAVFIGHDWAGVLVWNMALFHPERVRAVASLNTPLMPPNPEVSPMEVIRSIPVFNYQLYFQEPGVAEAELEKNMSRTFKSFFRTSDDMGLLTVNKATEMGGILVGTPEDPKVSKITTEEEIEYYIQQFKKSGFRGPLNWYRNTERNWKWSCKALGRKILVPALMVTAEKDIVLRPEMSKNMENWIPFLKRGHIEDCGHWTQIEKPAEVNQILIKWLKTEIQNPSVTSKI
Description: as §1

human sEH-FL (H) = molecular target: T4, human sEH-FL (H) (Homo sapiens, UniProt P34913); assay: PHOME-based hydrolase assay, full-length sEH; conditions: hydrolase activity of the full-length sEH protein, PHOME substrate; mean ± SD, n = 3
T4 construct: The full-length human sEH was previously published by Lukin et al; made in house
T4 sequence (P34913 1-555): T2 sequence (P34913 1-555)
Description: The fluorescence-based sEH hydrolase activity assay was performed as described previously in a 96-well format with some minor modifications. In short, full-length sEH (3 nM final concentration for all tested proteins) was dissolved in hydrolase assay buffer (Bis-Tris buffer, pH 7) supplemented with 0.1 mg mL^–1 BSA as well as Triton-X 100 to a final concentration of 0.01%. Protein solution (89 μL) was incubated with 1 μL of different concentrations of compounds (final DMSO concentration 1%) for 30 min at rt. The reaction was started by addition of 10 μL of a cyano­(6-methoxy-2-naphthalenyl)­methyl 3-phenyloxiran-2-ylacetate (PHOME) solution (final concentration of 50 μM). Hydrolysis of the nonfluorescent substrate by sEH to release fluorescent 6-methoxynaphthaldehyde was measured (λex = 330 nm, λem = 465 nm) using a Tecan Infinite F200PRO plate reader. The reaction was monitored over a duration of 45 min (one point every minute). A blank control (no protein and no compound) and a positive control (no compound) were carried out as well. All measurements were performed in triplicate.

O=C(O)CCCc1nc(-c2ccc(Cl)c(Cl)c2)c(-c2ccccc2)o1 [Compound 2]
IC50 (human sEH-NTD): 0.058 ± 0.005 µM
IC50 (human sEH-FL (P)): 4 ± 1 µM
IC50 (rat sEH-FL (P)): 2.8 ± 2.2 µM
IC50 (human sEH-FL (H)): 9.5 ± 0.5 µM
